Results reported in article PMC2009657, “Mammalian cell transformation in vitro. Six tests for carcinogenicity” (British Journal of Cancer, 1978).

Columns and labels:
[1] = in vivo; cited from earlier work
[2] = system: tester cells of the transformation assay

Molecule | Carcinogenicity, Lit. [1] | Toxicity in the assay [2]
CN(C)c1ccc(N=Nc2ccccc2)cc1 [4-Dimethylaminoazobenzene] | + | 
c1ccc(Nc2ccc3ccccc3c2)cc1 [N-phenyl-2-naphthylamine] | - | 
CC(=O)Nc1cccc2c1-c1ccccc1C2 [4-Acetylaminofluorene] | - | 
Nc1ccccc1-c1ccccc1 [2-Aminobiphenyl] | + | 
COc1ccc(N)cc1 [p-Anisidine] | - | 
CN(C)P(=O)(N(C)C)N(C)C [Hexamethylphosphoramide] | + | 
O=C1c2ccccc2C(=O)c2ccccc21 [Anthraquinone] | - | 
O=S1(=O)CCCCO1 [Butanesultone] | + | 
O=C(O)c1ccccc1 [Benzoic acid] | - | 
Nc1ccc(-c2ccccc2)cc1 [4-Aminobiphenyl] | + | 
c1ccc2[nH]cnc2c1 [Benzimidazole] | - | 
Cyanocobalamin [Cyanocobalamin (B12)] | - | 
Nc1ccc(-c2ccc(N)c(Cl)c2)cc1Cl [3,3'-Dichlorobenzidine] | + | 
Nc1ccc2ccc3cccc4ccc1c2c34 [3-Aminopyrene] | + | 
Nc1ccc2ccccc2c1S(=O)(=O)O [2-Aminonaphthalene-1-sulphonic acid] | - | 
c1ccc2c(c1)cc1ccc3cccc4ccc2c1c34 [3,4-Benzpyrene] | + | 
Nc1ccccc1 [Aniline] | - | 
c1cc2cccc3c4cccc5cccc(c(c1)c23)c54 [Perylene] | - | 
ClCOCCl [Bis(Chloromethyl)ether] | + | 
Nc1cc2c3ccccc3ccc2c2ccccc12 [6-Aminochrysene] | + | 
Cc1ccc(O)c(N=Nc2c(O)cc(S(=O)(=O)O)c3ccccc23)c1 [Calmagite] | - | 

Molecule | Carcinogenicity, Lit. [1] | Toxicity in the assay [2]
c1ccc(-c2ccccc2)cc1 [Biphenyl] | - | 
Nc1ccc(-c2ccc(N)cc2)cc1 [Benzidine] | + | 
Cc1c2ccccc2c(C)c2ccccc12 [9,10-Dimeuthylanthracene] | + | 
c1ccc2c(c1)ccc1cc3ccc4ccccc4c3nc12 [3,4,5,6-Dibenzacridine] | + | 
Nc1ccc(Cc2ccc(N)c(Cl)c2)cc1Cl | + | 
Nc1ccc2c(ccc3c4ccccc4ccc23)c1 [2-Aminochrysene] | + | 
O=[N+]([O-])c1ccc(F)c([N+](=O)[O-])c1 [2,4-Dinitrofluorobenzene] | + | 
CC/C(=C(/CC)c1ccc(O)cc1)c1ccc(O)cc1 [Diethylstilboestrol] | + | 
C=CCl [Vinyl chloride] |  | No toxicity observe(d
COc1cc(-c2ccc(N)c(OC)c2)ccc1N [3,3'-Dimethoxybenzidine] | + | 
Nc1ccc2ccccc2c1 [2-Naphthylamine] | + | 
ClC1=C(Cl)[C@]2(Cl)[C@@H]3[C@@H]4C[C@@H]([C@H]5O[C@@H]45)[C@@H]3[C@@]1(Cl)C2(Cl)Cl [Dieldrin] | - | 
NC1CCCCC1 [Cyclohexylamine] | - | 
Cc1ccc2cc3c(ccc4ccccc43)c3c2c1CC3 [20-Methylcholanthrene] | + | 
Cc1cc(-c2ccc(N)c(C)c2)ccc1N [3,3'-Dimethylbenzidine] | + | 
Croton oil | + | 
O=C(O)COc1ccc(Cl)cc1Cl [2,4-Dichlorophenoxyacetate] | - | 
CCOS(C)(=O)=O [Ethyl methanesulphonate] | + | 
c1ccc2c(c1)cc1ccc3cc4ccccc4c4ccc2c1c34 [3,4,9,10-Dibenzpyrene] | + | 
CC(=O)Nc1ccc2c(c1)Cc1ccccc1-2 [2-Acetylaminofluorene] | + | 
Morgan's base | + | 

Molecule | Carcinogenicity, Lit. [1] | Toxicity in the assay [2]
CC(C(O)c1ccccc1)N(C)N=O (stereo not shown) [N-Nitrosoephedrine] | + | 
O=P1(N(CCCl)CCCl)NCCCO1 (stereo not shown) [Cyclophosphamide] | + | 
C1CCC(NC2CCCCC2)CC1 [Dicyclohexylamine] | - | 
c1ccc2cc(Nc3ccc(Nc4ccc5ccccc5c4)cc3)ccc2c1 [N,N'-Bis(2-naphthyl)-p-phenylenediamine] | - | 
CCN(CC)N=O [Diethylnitrosamine] | + | 
Cycasin acetate | + | 
O=C(O)CCCc1ccc(N(CCCl)CCCl)cc1 [Chlorambucil] | + | 
c1ccc2cc3ccccc3cc2c1 [Anthracene] | - | 
NN [Hydrazine] | + | 
O=C1c2ccccc2-c2cccc3cccc1c23 [Benzathrone] | - | 
Nc1ccccc1C(=O)O [Anthranilic acid] | - | 
O=[N+]([O-])c1ccccc1-c1ccccc1 [2-Nitrobiphenyl] | + | 
Nc1ccc2c(c1)Cc1cc(N)ccc1-2 [2,7-Diaminofluorene] | + | 
Clc1ccc(C(c2ccc(Cl)cc2)C(Cl)(Cl)Cl)cc1 [D.D.T.] | - | 
Oc1cccc2ccccc12 [1-Naphthol] | - | 
C=CCc1ccc2c(c1)OCO2 [Safrole] | + | 
c1ccc2cc3c(ccc4ccccc43)cc2c1 [1,2-Benzanthracene] | + | 
c1ccc2ccccc2c1 [Naphthalene] | - | 
Nc1ccc(N=Nc2ccccc2)cc1 [4-Aminoazobenzene] | + | 
